System: Normal human bladder epithelial cells
Test: Inhibition of APF activity by recombinant growth factors, low molecular weight urine fractions, 3H-thymidine incorporation
Type: cell-based
Conditions: simultaneous exposure to recombinant growth factor and <3 kDa urine fraction, 48 hours; HB-EGF 0-100 ng/ml (effect evident at 10 ng/ml), EGF 0-100 ng/ml, IGF-1 0-300 pg/ml; FIGS. 6A-6C
Method: Primary normal adult human bladder epithelial (HBE) cells were cultured by the method described above in Part II. On the third day of incubation, cell medium was replaced by serum free MEM containing the less than 3 kDa fraction (i.e, containing the APF) of urine specimens from IC patients or controls (i.e., that part containing the anti-proliferative factor or APF described in related application Ser. No. 08/944,202), or HPLC-purified APF or its mock control along with varying concentrations of recombinant HB-EGF (0-100 ng/ml), EGF (0-100 ng/ml), or IGF-1 (0-300 pg/ml) [all from R & D Systems, Minneapolis, Minn.] diluted in phosphate buffered saline (1:1:1). Urine was prepared by the method described above in Part II and HPLC purified APF was prepared as described above. Following an additional 48 hours of incubation at 37 degrees C. in a 5% CO2 atmosphere, cell proliferation was assessed by ^3H-thymidine incorporation according to the published methods^38.
Normal human bladder epithelial cells were exposed simultaneously to recombinant human growth factors (HB-EGF, EGF, or IGF1) and low molecular weight fractions from IC patients or control urine specimens. Cell proliferation was determined 48 hours later by 3H-thymidine incorporation (FIGS. 6A-6C). Bar values indicate the mean of 5-8 determinations. Vertical lines indicate the standard error of the mean.

Substance	inhibition of APF antiproliferative activity
IGF1: recombinant insulin-like growth factor 1 from R & D Systems	unable to completely inhibit APF activity
epidermal growth factor (NSDSECPLSHDGYCLHDGVCMYIEALDKYACNCVVGYIGERCQYRDLKWWELR; UniProt P01133 971-1023, looked up) [EGF, recombinant epidermal growth factor from R & D Systems]	unable to completely inhibit APF activity
